Legend:
Assay in all cases: relative viability (nuclei count vs DMSO), 5 days (fraction); higher = more cells survive
Pictilisib + Phenformin = compound: CS(=O)(=O)N1CCN(Cc2cc3nc(-c4cccc5[nH]ncc45)nc(N4CCOCC4)c3s2)CC1 [Pictilisib] + N=C(N)NC(=N)NCCc1ccccc1 [Phenformin] (partner 250 µM)
Outline: (§1)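 Lung cancer cell lines in 1536-well plates were dosed by pin tool the day after seeding, either with one drug alone or with a fixed anchor-drug dose plus five library-drug doses (not always all listed) in √10 steps. After 5 days, cells were fixed and their nuclei stained in one step (final 0.05% Triton X-100, 1% formaldehyde, 1 ug/ml Hoechst), then counted on 4× images. Relative viability is the nuclei count in treated wells divided by that in vehicle wells. Values are medians of duplicate plates.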

Pictilisib + Vorinostat = compound: CS(=O)(=O)N1CCN(Cc2cc3nc(-c4cccc5[nH]ncc45)nc(N4CCOCC4)c3s2)CC1 [Pictilisib] + O=C(CCCCCCC(=O)Nc1ccccc1)NO [Vorinostat] (partner 1 µM)
Outline: as §1

MK-2206 + Palbociclib = compound: NC1(c2ccc(-c3nc4ccn5c(=O)[nH]nc5c4cc3-c3ccccc3)cc2)CCC1 [MK-2206] + CC(=O)c1c(C)c2cnc(Nc3ccc(N4CCNCC4)cn3)nc2n(C2CCCC2)c1=O [Palbociclib] (partner 0.5 µM)
Outline: as §1

MK-2206 + Pictilisib = compound: NC1(c2ccc(-c3nc4ccn5c(=O)[nH]nc5c4cc3-c3ccccc3)cc2)CCC1 [MK-2206] + CS(=O)(=O)N1CCN(Cc2cc3nc(-c4cccc5[nH]ncc45)nc(N4CCOCC4)c3s2)CC1 [Pictilisib] (partner 1 µM)
Outline: as §1

MK-2206 + Olaparib = compound: NC1(c2ccc(-c3nc4ccn5c(=O)[nH]nc5c4cc3-c3ccccc3)cc2)CCC1 [MK-2206] + O=C(c1cc(Cc2n[nH]c(=O)c3ccccc23)ccc1F)N1CCN(C(=O)C2CC2)CC1 [Olaparib] (partner 8 µM)
Outline: as §1

Cell Line: NCI-H1915
- relative viability (Pictilisib + Phenformin; first compound 0.02 µM): 0.392
- relative viability (Pictilisib + Phenformin; first compound 0.06325 µM): 0.367
- relative viability (Pictilisib + Phenformin; first compound 0.6325 µM): 0.365
- relative viability (Pictilisib + Phenformin; first compound 2 µM): 0.361
- relative viability (Pictilisib + Vorinostat; first compound 0.02 µM): 0.537
- relative viability (Pictilisib + Vorinostat; first compound 0.06325 µM): 0.521
- relative viability (Pictilisib + Vorinostat; first compound 0.6325 µM): 0.536
- relative viability (Pictilisib + Vorinostat; first compound 2 µM): 0.403
- relative viability (MK-2206 + Palbociclib; first compound 0.01 µM): 0.594
- relative viability (MK-2206 + Palbociclib; first compound 0.03162 µM): 0.612
- relative viability (MK-2206 + Palbociclib; first compound 0.3162 µM): 0.499
- relative viability (MK-2206 + Palbociclib; first compound 1 µM): 0.505
- relative viability (MK-2206 + Pictilisib; first compound 0.01 µM): 0.866
- relative viability (MK-2206 + Pictilisib; first compound 0.03162 µM): 1.1
- relative viability (MK-2206 + Pictilisib; first compound 0.3162 µM): 0.88
- relative viability (MK-2206 + Pictilisib; first compound 1 µM): 0.947
- relative viability (MK-2206 + Olaparib; first compound 0.01 µM): 0.238
- relative viability (MK-2206 + Olaparib; first compound 0.03162 µM): 0.246
- relative viability (MK-2206 + Olaparib; first compound 0.3162 µM): 0.257
- relative viability (MK-2206 + Olaparib; first compound 1 µM): 0.254

Cell Line: 201T
- relative viability (Pictilisib + Phenformin; first compound 0.02 µM): 0.476
- relative viability (Pictilisib + Phenformin; first compound 0.06325 µM): 0.443
- relative viability (Pictilisib + Phenformin; first compound 0.6325 µM): 0.409
- relative viability (Pictilisib + Phenformin; first compound 2 µM): 0.3
- relative viability (Pictilisib + Vorinostat; first compound 0.02 µM): 0.859
- relative viability (Pictilisib + Vorinostat; first compound 0.06325 µM): 0.966
- relative viability (Pictilisib + Vorinostat; first compound 0.6325 µM): 0.869
- relative viability (Pictilisib + Vorinostat; first compound 2 µM): 0.622
- relative viability (MK-2206 + Palbociclib; first compound 0.01 µM): 0.356
- relative viability (MK-2206 + Palbociclib; first compound 0.03162 µM): 0.344
- relative viability (MK-2206 + Palbociclib; first compound 0.3162 µM): 0.342
- relative viability (MK-2206 + Palbociclib; first compound 1 µM): 0.332
- relative viability (MK-2206 + Pictilisib; first compound 0.01 µM): 0.669
- relative viability (MK-2206 + Pictilisib; first compound 0.03162 µM): 0.696
- relative viability (MK-2206 + Pictilisib; first compound 0.3162 µM): 0.651
- relative viability (MK-2206 + Pictilisib; first compound 1 µM): 0.648
- relative viability (MK-2206 + Olaparib; first compound 0.01 µM): 0.825
- relative viability (MK-2206 + Olaparib; first compound 0.03162 µM): 0.857
- relative viability (MK-2206 + Olaparib; first compound 0.3162 µM): 0.858
- relative viability (MK-2206 + Olaparib; first compound 1 µM): 0.856

Cell Line: NCI-H1437
- relative viability (Pictilisib + Phenformin; first compound 0.02 µM): 0.315
- relative viability (Pictilisib + Phenformin; first compound 0.06325 µM): 0.321
- relative viability (Pictilisib + Phenformin; first compound 0.6325 µM): 0.256
- relative viability (Pictilisib + Phenformin; first compound 2 µM): 0.297
- relative viability (Pictilisib + Vorinostat; first compound 0.02 µM): 0.882
- relative viability (Pictilisib + Vorinostat; first compound 0.06325 µM): 0.949
- relative viability (Pictilisib + Vorinostat; first compound 0.6325 µM): 0.611
- relative viability (Pictilisib + Vorinostat; first compound 2 µM): 0.516
- relative viability (MK-2206 + Palbociclib; first compound 0.01 µM): 0.304
- relative viability (MK-2206 + Palbociclib; first compound 0.03162 µM): 0.332
- relative viability (MK-2206 + Palbociclib; first compound 0.3162 µM): 0.336
- relative viability (MK-2206 + Palbociclib; first compound 1 µM): 0.286
- relative viability (MK-2206 + Pictilisib; first compound 0.01 µM): 0.472
- relative viability (MK-2206 + Pictilisib; first compound 0.03162 µM): 0.399
- relative viability (MK-2206 + Pictilisib; first compound 0.3162 µM): 0.366
- relative viability (MK-2206 + Pictilisib; first compound 1 µM): 0.263
- relative viability (MK-2206 + Olaparib; first compound 0.01 µM): 0.632
- relative viability (MK-2206 + Olaparib; first compound 0.03162 µM): 0.643
- relative viability (MK-2206 + Olaparib; first compound 0.3162 µM): 0.698
- relative viability (MK-2206 + Olaparib; first compound 1 µM): 0.653

Cell Line: A-427
- relative viability (Pictilisib + Phenformin; first compound 0.02 µM): 0.345
- relative viability (Pictilisib + Phenformin; first compound 0.06325 µM): 0.357
- relative viability (Pictilisib + Phenformin; first compound 0.6325 µM): 0.27
- relative viability (Pictilisib + Phenformin; first compound 2 µM): 0.212
- relative viability (Pictilisib + Vorinostat; first compound 0.02 µM): 0.84
- relative viability (Pictilisib + Vorinostat; first compound 0.06325 µM): 0.874
- relative viability (Pictilisib + Vorinostat; first compound 0.6325 µM): 0.95
- relative viability (Pictilisib + Vorinostat; first compound 2 µM): 0.853
- relative viability (MK-2206 + Palbociclib; first compound 0.01 µM): 0.512
- relative viability (MK-2206 + Palbociclib; first compound 0.03162 µM): 0.585
- relative viability (MK-2206 + Palbociclib; first compound 0.3162 µM): 0.507
- relative viability (MK-2206 + Palbociclib; first compound 1 µM): 0.524
- relative viability (MK-2206 + Pictilisib; first compound 0.01 µM): 0.766
- relative viability (MK-2206 + Pictilisib; first compound 0.03162 µM): 0.676
- relative viability (MK-2206 + Pictilisib; first compound 0.3162 µM): 0.732
- relative viability (MK-2206 + Pictilisib; first compound 1 µM): 0.717
- relative viability (MK-2206 + Olaparib; first compound 0.01 µM): 0.724
- relative viability (MK-2206 + Olaparib; first compound 0.03162 µM): 0.704
- relative viability (MK-2206 + Olaparib; first compound 0.3162 µM): 0.78
- relative viability (MK-2206 + Olaparib; first compound 1 µM): 0.699

Cell Line: HCC-366
- relative viability (Pictilisib + Phenformin; first compound 0.02 µM): 0.631
- relative viability (Pictilisib + Phenformin; first compound 0.06325 µM): 0.702
- relative viability (Pictilisib + Phenformin; first compound 0.6325 µM): 0.269
- relative viability (Pictilisib + Phenformin; first compound 2 µM): 0.129
- relative viability (Pictilisib + Vorinostat; first compound 0.02 µM): 0.45
- relative viability (Pictilisib + Vorinostat; first compound 0.06325 µM): 0.368
- relative viability (Pictilisib + Vorinostat; first compound 0.6325 µM): 0.226
- relative viability (Pictilisib + Vorinostat; first compound 2 µM): 0.118
- relative viability (MK-2206 + Palbociclib; first compound 0.01 µM): 0.392
- relative viability (MK-2206 + Palbociclib; first compound 0.03162 µM): 0.38
- relative viability (MK-2206 + Palbociclib; first compound 0.3162 µM): 0.225
- relative viability (MK-2206 + Palbociclib; first compound 1 µM): 0.244
- relative viability (MK-2206 + Pictilisib; first compound 0.01 µM): 0.19
- relative viability (MK-2206 + Pictilisib; first compound 0.03162 µM): 0.124
- relative viability (MK-2206 + Pictilisib; first compound 0.3162 µM): 0.126
- relative viability (MK-2206 + Pictilisib; first compound 1 µM): 0.12
- relative viability (MK-2206 + Olaparib; first compound 0.01 µM): 0.367
- relative viability (MK-2206 + Olaparib; first compound 0.03162 µM): 0.472
- relative viability (MK-2206 + Olaparib; first compound 0.3162 µM): 0.328
- relative viability (MK-2206 + Olaparib; first compound 1 µM): 0.322

Cell Line: BEN
- relative viability (Pictilisib + Phenformin; first compound 0.02 µM): 0.315
- relative viability (Pictilisib + Phenformin; first compound 0.06325 µM): 0.286
- relative viability (Pictilisib + Phenformin; first compound 0.6325 µM): 0.286
- relative viability (Pictilisib + Phenformin; first compound 2 µM): 0.248
- relative viability (Pictilisib + Vorinostat; first compound 0.02 µM): 0.583
- relative viability (Pictilisib + Vorinostat; first compound 0.06325 µM): 0.615
- relative viability (Pictilisib + Vorinostat; first compound 0.6325 µM): 0.609
- relative viability (Pictilisib + Vorinostat; first compound 2 µM): 0.441
- relative viability (MK-2206 + Palbociclib; first compound 0.01 µM): 0.493
- relative viability (MK-2206 + Palbociclib; first compound 0.03162 µM): 0.516
- relative viability (MK-2206 + Palbociclib; first compound 0.3162 µM): 0.522
- relative viability (MK-2206 + Palbociclib; first compound 1 µM): 0.498
- relative viability (MK-2206 + Pictilisib; first compound 0.01 µM): 0.573
- relative viability (MK-2206 + Pictilisib; first compound 0.03162 µM): 0.621
- relative viability (MK-2206 + Pictilisib; first compound 0.3162 µM): 0.63
- relative viability (MK-2206 + Pictilisib; first compound 1 µM): 0.571
- relative viability (MK-2206 + Olaparib; first compound 0.01 µM): 1.06
- relative viability (MK-2206 + Olaparib; first compound 0.03162 µM): 1.2
- relative viability (MK-2206 + Olaparib; first compound 0.3162 µM): 1.14
- relative viability (MK-2206 + Olaparib; first compound 1 µM): 1.02
